# Assay results: ChEMBL document CHEMBL3044960, “Evaluation of fungicide applications to sweet orange at different flowering stages for control of postbloom fruit drop caused by Colletotrichum acutatum” (2008)
# Calls of active or inactive are those of the source. The calls are words filed in the database; no cut-off is given here.
# Experiments:
# Colletotrichum acutatum [1] = test: Fungicidal activity against Colletotrichum acutatum infested Citrus sinensis assessed as reduction in symptomatic flowers at 0.5 g/l applied through airblast sprayer during open flower stage measured after 7 days; type: functional, organism-based
# Colletotrichum acutatum [2] = test: Fungicidal activity against Colletotrichum acutatum infested Citrus sinensis assessed as increase in fruit production per tree at 0.5 g/l applied through airblast sprayer during green bud to white ball flower stages measured after 70 days in presence of KNO3; type: functional, organism-based
# Colletotrichum acutatum [3] = test: Fungicidal activity against Colletotrichum acutatum infested Citrus sinensis assessed as increase in fruit set at 0.5 g/l applied through airblast sprayer during green bud flower stage measured after 70 days; type: functional, organism-based
# Colletotrichum acutatum [4] = test: Fungicidal activity against Colletotrichum acutatum infested Citrus sinensis assessed as reduction in number of symptomatic flowers at 0.5 g/l applied through airblast sprayer during green bud and white bud flower stages measured after 7 days; type: functional, organism-based
# Colletotrichum acutatum [5] = test: Fungicidal activity against Colletotrichum acutatum infested Citrus sinensis assessed as total fruit weight per plant at 0.5 g/l applied through airblast sprayer during green bud and hollow ball flower stages measured after 70 days (Rvb =49.88 kg); type: functional
# Colletotrichum acutatum [6] = test: Fungicidal activity against Colletotrichum acutatum infested Citrus sinensis assessed as total fruit weight per plant at 0.5 g/l applied through airblast sprayer during green bud until open flower stages measured after 70 days (Rvb =65.90 kg); type: functional
# Colletotrichum acutatum [7] = test: Fungicidal activity against Colletotrichum acutatum infested Citrus sinensis assessed as increase in fruit set percentage at 0.5 g/l applied through airblast sprayer during green bud to white ball flower stages measured after 70 days in presence of KNO3; type: functional, organism-based
# Colletotrichum acutatum [8] = test: Fungicidal activity against Colletotrichum acutatum infested Citrus sinensis assessed as increase in fruit set percentage at 0.5 g/l applied through airblast sprayer during green bud to white ball flower stages measured after 70 days; type: functional, organism-based
# Colletotrichum acutatum [9] = test: Fungicidal activity against Colletotrichum acutatum infested Citrus sinensis assessed as total fruit weight per plant at 0.5 g/l applied through airblast sprayer during green bud, white bud and hollow ball flower stages measured after 70 days (Rvb =65.90 kg); type: functional
# Colletotrichum acutatum [10] = test: Fungicidal activity against Colletotrichum acutatum infested Citrus sinensis assessed as increase in fruit set at 0.5 g/l applied through airblast sprayer during open flower stage measured after 70 days; type: functional, organism-based
# Colletotrichum acutatum [11] = test: Fungicidal activity against Colletotrichum acutatum infested Citrus sinensis assessed as total fruit weight per plant at 0.5 g/l applied through airblast sprayer during green bud and white bud flower stages measured after 70 days (Rvb =65.90 kg); type: functional
# Colletotrichum acutatum [12] = test: Fungicidal activity against Colletotrichum acutatum infested Citrus sinensis assessed as total fruit weight per plant at 0.5 g/l applied through airblast sprayer during green bud flower stage measured after 70 days (Rvb =65.90 kg); type: functional
# Colletotrichum acutatum [13] = test: Fungicidal activity against Colletotrichum acutatum infested Citrus sinensis assessed as increase in fruit set at 0.5 g/l applied through airblast sprayer during white bud flower stage measured after 70 days; type: functional, organism-based
# Colletotrichum acutatum [14] = test: Fungicidal activity against Colletotrichum acutatum infested Citrus sinensis assessed as reduction in number of symptomatic flowers at 0.5 g/l applied through airblast sprayer during green bud flower stage measured after 7 days; type: functional, organism-based
# Colletotrichum acutatum [15] = test: Fungicidal activity against Colletotrichum acutatum infested Citrus sinensis assessed as reduction in symptomatic flowers at 0.5 g/l applied through airblast sprayer during white bud and hollow ball flower stages measured after 7 days; type: functional, organism-based
# Colletotrichum acutatum [16] = test: Fungicidal activity against Colletotrichum acutatum infested Citrus sinensis assessed as total fruit weight per plant at 0.5 g/l applied through airblast sprayer during white bud and hollow ball flower stages measured after 70 days (Rvb =49.88 kg); type: functional
# Colletotrichum acutatum [17] = test: Fungicidal activity against Colletotrichum acutatum infested Citrus sinensis assessed as increase in fruit set at 0.5 g/l applied through airblast sprayer during white bud and hollow ball flower stages measured after 70 days relative to control; type: functional, organism-based
# Colletotrichum acutatum [18] = test: Fungicidal activity against Colletotrichum acutatum infested Citrus sinensis assessed as reduction in persistant calyces at 0.5 g/l applied through airblast sprayer during green bud to white ball flower stages measured after 7 days; type: functional, organism-based
# Colletotrichum acutatum [19] = test: Fungicidal activity against Colletotrichum acutatum infested Citrus sinensis assessed as reduction in number of symptomatic flowers at 0.5 g/l applied through airblast sprayer during green bud until open flower stages measured after 7 days; type: functional, organism-based
# Colletotrichum acutatum [20] = test: Fungicidal activity against Colletotrichum acutatum infested Citrus sinensis assessed as total fruit weight per plant at 0.5 g/l applied through airblast sprayer during open flower stage measured after 70 days (Rvb =49.88 kg); type: functional
# Colletotrichum acutatum [21] = test: Fungicidal activity against Colletotrichum acutatum infested Citrus sinensis assessed as reduction in number of symptomatic flowers at 0.5 g/l applied through airblast sprayer during green bud, white bud and hollow ball flower stages measured after 7 days; type: functional, organism-based
# Colletotrichum acutatum [22] = test: Fungicidal activity against Colletotrichum acutatum infested Citrus sinensis assessed as total fruit weight per plant at 0.5 g/l applied through airblast sprayer during hollow ball flower stage measured after 70 days (Rvb =49.88 kg); type: functional
# Colletotrichum acutatum [23] = test: Fungicidal activity against Colletotrichum acutatum infested Citrus sinensis assessed as reduction in symptomatic flowers at 0.5 g/l applied through airblast sprayer during hollow ball flower stage measured after 7 days; type: functional, organism-based
# Colletotrichum acutatum [24] = test: Fungicidal activity against Colletotrichum acutatum infested Citrus sinensis assessed as reduction in symptomatic flowers at 0.5 g/l applied through airblast sprayer during green bud and hollow ball flower stages measured after 7 days; type: functional, organism-based
# Colletotrichum acutatum [25] = test: Fungicidal activity against Colletotrichum acutatum infested Citrus sinensis assessed as increase in fruit production per tree at 0.5 g/l applied through airblast sprayer during green bud to white ball flower stages measured after 70 days; type: functional, organism-based
# Colletotrichum acutatum [26] = test: Fungicidal activity against Colletotrichum acutatum infested Citrus sinensis assessed as total fruit weight per plant at 0.056 g/l applied through airblast sprayer during green bud and white bud flower stages measured after 70 days (Rvb =65.90 kg); type: functional
# Colletotrichum acutatum [27] = test: Fungicidal activity against Colletotrichum acutatum infested Citrus sinensis assessed as reduction in symptomatic flowers at 0.056 g/l applied through airblast sprayer during open flower stage measured after 7 days; type: functional, organism-based
# Colletotrichum acutatum [28] = test: Fungicidal activity against Colletotrichum acutatum infested Citrus sinensis assessed as reduction in symptomatic flowers at 0.056 g/l applied through airblast sprayer during green bud and hollow ball flower stages measured after 7 days; type: functional, organism-based
# Colletotrichum acutatum [29] = test: Fungicidal activity against Colletotrichum acutatum infested Citrus sinensis assessed as reduction in number of symptomatic flowers at 0.056 g/l applied through airblast sprayer during green bud until open flower stages measured after 7 days; type: functional, organism-based
# Colletotrichum acutatum [30] = test: Fungicidal activity against Colletotrichum acutatum infested Citrus sinensis assessed as increase in fruit set at 0.056 g/l applied through airblast sprayer during green bud, white bud and hollow ball flower stages measured after 70 days; type: functional, organism-based
# Colletotrichum acutatum [31] = test: Fungicidal activity against Colletotrichum acutatum infested Citrus sinensis assessed as reduction in number of symptomatic flowers at 0.056 g/l applied through airblast sprayer during green bud, white bud and hollow ball flower stages measured after 7 days; type: functional, organism-based
# Colletotrichum acutatum [32] = test: Fungicidal activity against Colletotrichum acutatum infested Citrus sinensis assessed as reduction in symptomatic flowers at 0.056 g/l applied through airblast sprayer during white bud and hollow ball flower stages measured after 7 days; type: functional, organism-based
# Colletotrichum acutatum [33] = test: Fungicidal activity against Colletotrichum acutatum infested Citrus sinensis assessed as reduction in symptomatic flowers at 0.056 g/l applied through airblast sprayer during hollow ball flower stage measured after 7 days; type: functional, organism-based
# Colletotrichum acutatum [34] = test: Fungicidal activity against Colletotrichum acutatum infested Citrus sinensis assessed as increase in fruit set at 0.056 g/l applied through airblast sprayer during green bud and white bud flower stages measured after 70 days; type: functional, organism-based
# Colletotrichum acutatum [35] = test: Fungicidal activity against Colletotrichum acutatum infested Citrus sinensis assessed as total fruit weight per plant at 0.056 g/l applied through airblast sprayer during open flower stage measured after 70 days (Rvb =49.88 kg); type: functional
# Colletotrichum acutatum [36] = test: Fungicidal activity against Colletotrichum acutatum infested Citrus sinensis assessed as total fruit weight per plant at 0.056 g/l applied through airblast sprayer during green bud until open flower stages measured after 70 days (Rvb =65.90 kg); type: functional
# Colletotrichum acutatum [37] = test: Fungicidal activity against Colletotrichum acutatum infested Citrus sinensis assessed as total fruit weight per plant at 0.056 g/l applied through airblast sprayer during hollow ball flower stage measured after 70 days (Rvb =49.88 kg); type: functional
# Colletotrichum acutatum [38] = test: Fungicidal activity against Colletotrichum acutatum infested Citrus sinensis assessed as increase in fruit set at 0.056 g/l applied through airblast sprayer during green bud flower stage measured after 70 days; type: functional, organism-based
# Colletotrichum acutatum [39] = test: Fungicidal activity against Colletotrichum acutatum infested Citrus sinensis assessed as increase in fruit set at 0.056 g/l applied through airblast sprayer during open flower stage measured after 70 days; type: functional, organism-based
# Colletotrichum acutatum [40] = test: Fungicidal activity against Colletotrichum acutatum infested Citrus sinensis assessed as total fruit weight per plant at 0.056 g/l applied through airblast sprayer during green bud, white bud and hollow ball flower stages measured after 70 days (Rvb =65.90 kg); type: functional
# Colletotrichum acutatum [41] = test: Fungicidal activity against Colletotrichum acutatum infested Citrus sinensis assessed as total fruit weight per plant at 0.056 g/l applied through airblast sprayer during green bud and hollow ball flower stages measured after 70 days (Rvb =49.88 kg); type: functional
# Colletotrichum acutatum [42] = test: Fungicidal activity against Colletotrichum acutatum infested Citrus sinensis assessed as total fruit weight per plant at 0.056 g/l applied through airblast sprayer during green bud flower stage measured after 70 days (Rvb =65.90 kg); type: functional
# Colletotrichum acutatum [43] = test: Fungicidal activity against Colletotrichum acutatum infested Citrus sinensis assessed as total fruit weight per plant at 0.056 g/l applied through airblast sprayer during white bud and hollow ball flower stages measured after 70 days (Rvb =49.88 kg)s; type: functional
# Colletotrichum acutatum [44] = test: Fungicidal activity against Colletotrichum acutatum infested Citrus sinensis assessed as increase in fruit set at 0.056 g/l applied through airblast sprayer during green bud until open flower stages measured after 70 days; type: functional, organism-based
compound,measurement,setting,value
COC(=O)Nc1nc2ccccc2[nH]1 [CARBENDAZIM],Activity,Colletotrichum acutatum [1],inactive
same,Activity,Colletotrichum acutatum [2],Active
same,Activity,Colletotrichum acutatum [3],Active
same,Activity,Colletotrichum acutatum [4],Active
same,Activity,Colletotrichum acutatum [5],73.8 kg
same,Activity,Colletotrichum acutatum [6],114.9 kg
same,Activity,Colletotrichum acutatum [7],Active
same,Activity,Colletotrichum acutatum [8],Active
same,Activity,Colletotrichum acutatum [9],102.4 kg
same,Activity,Colletotrichum acutatum [10],inactive
same,Activity,Colletotrichum acutatum [11],67.9 kg
same,Activity,Colletotrichum acutatum [12],53.7 kg
same,Activity,Colletotrichum acutatum [13],Active
same,Activity,Colletotrichum acutatum [14],Active
same,Activity,Colletotrichum acutatum [15],Active
same,Activity,Colletotrichum acutatum [16],63.5 kg
same,Activity,Colletotrichum acutatum [17],Active
same,Activity,Colletotrichum acutatum [18],Active
same,Activity,Colletotrichum acutatum [19],Active
same,Activity,Colletotrichum acutatum [20],59 kg
same,Activity,Colletotrichum acutatum [21],Active
same,Activity,Colletotrichum acutatum [22],57 kg
same,Activity,Colletotrichum acutatum [23],Active
same,Activity,Colletotrichum acutatum [24],Active
same,Activity,Colletotrichum acutatum [25],Active
CC1COC(Cn2cncn2)(c2ccc(Oc3ccc(Cl)cc3)cc2Cl)O1 (centres undefined) [DIFENOCONAZOLE],Activity,Colletotrichum acutatum [26],38.7 kg
same,Activity,Colletotrichum acutatum [27],inactive
same,Activity,Colletotrichum acutatum [28],Active
same,Activity,Colletotrichum acutatum [29],Active
same,Activity,Colletotrichum acutatum [30],inactive
same,Activity,Colletotrichum acutatum [31],Active
same,Activity,Colletotrichum acutatum [32],Active
same,Activity,Colletotrichum acutatum [33],inactive
same,Activity,Colletotrichum acutatum [34],inactive
same,Activity,Colletotrichum acutatum [35],38 kg
same,Activity,Colletotrichum acutatum [36],47.2 kg
same,Activity,Colletotrichum acutatum [37],71.4 kg
same,Activity,Colletotrichum acutatum [38],inactive
same,Activity,Colletotrichum acutatum [39],inactive
same,Activity,Colletotrichum acutatum [40],53.9 kg
same,Activity,Colletotrichum acutatum [41],53.5 kg
same,Activity,Colletotrichum acutatum [42],59.2 kg
same,Activity,Colletotrichum acutatum [43],32.7 kg
same,Activity,Colletotrichum acutatum [44],inactive
